Source: patent US11865086B2, “Cinnamaldehyde derivative compounds and methods of use for cinnamaldehyde derivative compounds nicotine cessation” (Pacific University, priority 2018, dated 2024)
Entries after “also recorded” stand apart in the source; their conditions may differ.

Assays:
CYP2A6 [1] = molecular target: T1, CYP2A6 (Homo sapiens, UniProt P11509); test: in vitro
T1 sequence (P11509 1-494): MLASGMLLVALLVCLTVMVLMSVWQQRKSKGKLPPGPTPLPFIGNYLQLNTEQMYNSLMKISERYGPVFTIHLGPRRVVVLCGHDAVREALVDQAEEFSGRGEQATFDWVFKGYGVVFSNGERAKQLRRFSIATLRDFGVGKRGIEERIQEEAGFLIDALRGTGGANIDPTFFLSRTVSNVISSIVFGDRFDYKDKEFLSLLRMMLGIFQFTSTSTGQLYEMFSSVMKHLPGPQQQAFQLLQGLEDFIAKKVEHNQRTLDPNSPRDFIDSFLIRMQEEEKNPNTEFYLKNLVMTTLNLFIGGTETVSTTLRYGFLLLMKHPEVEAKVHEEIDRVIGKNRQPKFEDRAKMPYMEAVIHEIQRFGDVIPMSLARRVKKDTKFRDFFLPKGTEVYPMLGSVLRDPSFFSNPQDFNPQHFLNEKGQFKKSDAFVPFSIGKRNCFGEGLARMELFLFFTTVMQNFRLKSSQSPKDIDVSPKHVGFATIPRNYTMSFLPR
From the text: (§1) Since this type of inhibition also requires that the inhibitor is initially metabolized by the target enzyme, MBIs may be identified by evaluating the inhibition in the presence and absence of cofactors that are required for activity, such as NADPH for CYPs.

CYP2A6 [2] = molecular target: T1, CYP2A6; test: biochemical
From the text: as §1

CYP2A6 [3] = molecular target: T1, CYP2A6; test: Time-dependent inhibition screen, recombinant CYP2A6 system, coumarin hydroxylase readout; settings: for Fold difference (with respect to CA): kinact/kI relative to t-CA; for time-dependent inhibition of CYP2A6, result in words: with NADPH, 7-hydroxycoumarin formation; for kinact / kinact/kI: Table 5
From the text: as §1

CYP2A6 [4] = molecular target: T1, CYP2A6; test: IC50 for inhibition of CYP2A6, coumarin hydroxylase activity (7-hydroxycoumarin fluorescence); settings: Table 1B, structural analogs of CA
From the text: (§2) A 96-well plate assay and fluorescence spectroscopy may be used to quantify the product, 7-hydroxycoumarin.
Data was fit using GraphPad Prism.

CYP2A6 [5] = molecular target: T1, CYP2A6; test: biochemical; remark: listed apart in the source
From the text: as §2
Data was fit using GraphPad Prism.

CYP2A6 [6] = molecular target: T2, CYP2A6 (Homo sapiens, UniProt P11509, K28S/Q25K/Q26K/R27T/W24A); test: Spectral ligand binding (KS) to purified CYP2A6 expressed in Escherichia coli; settings: read-out: Ks
T2 sequence (P11509 with tags, fused parts or gaps limits assumed): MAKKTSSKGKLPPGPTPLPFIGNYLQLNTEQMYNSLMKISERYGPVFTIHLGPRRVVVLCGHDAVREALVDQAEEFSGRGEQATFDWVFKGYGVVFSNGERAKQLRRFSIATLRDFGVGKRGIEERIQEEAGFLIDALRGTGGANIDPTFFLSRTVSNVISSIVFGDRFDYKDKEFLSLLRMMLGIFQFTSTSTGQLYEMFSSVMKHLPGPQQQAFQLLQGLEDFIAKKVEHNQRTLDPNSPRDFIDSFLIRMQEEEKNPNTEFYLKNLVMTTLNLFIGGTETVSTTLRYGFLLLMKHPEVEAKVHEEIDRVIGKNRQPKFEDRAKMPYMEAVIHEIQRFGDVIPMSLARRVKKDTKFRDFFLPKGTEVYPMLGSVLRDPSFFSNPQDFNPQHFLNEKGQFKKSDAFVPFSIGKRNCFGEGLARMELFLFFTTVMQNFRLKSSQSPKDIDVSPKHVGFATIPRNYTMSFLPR
Experimental: (§3) Spectral binding studies were conducted using purified heterologously expressed CYP2A6 in Escherichia coli. […] Absorbance changes (A386-A418) may be plotted against added ligand concentrations in order to determine dissociation constants.
(§4) In more detail, the CYP2A6 enzyme may be heterologously expressed in Escherichia coli and purified. The expression vector, pKK2A6dH may be used to express the enzyme. The vector contains a cDNA sequence that codes for human CYP2A6 with a deletion of the N-terminal transmembrane sequence, an alteration of several residues at the modified N-terminus to increase expression, and four histidine residues added at the C-terminus to aid in purification. […] Expression from the vector may be induced with the addition of IPTG to bacterial cultures. δ-Aminolevulinic acid is added during expression to supplement heme biosynthesis. The enzyme may be purified following previously reported protocols. Briefly, following cell disruption, the solubilized enzyme may be purified using Ni^2+-affinity chromatography and cation-exchange (CM sepharose) chromatography, which may lead to protein of high purity and P450 content.

[7] = obtained from PubChem and ChemSpider; cited from earlier work
CYP2A6 [8] = molecular target: T2, CYP2A6; test: biochemical
Experimental: as §3, §4

[9] = molecular target: T3, CYP2A6-mediated nicotine metabolism (Homo sapiens, UniProt P11509); test: Model (Equation 2) predicting change in nicotine AUC from mechanism-based inhibition parameters; settings: Table 5, predicted nicotine AUC
T3 sequence (P11509 1-494): T1 sequence (P11509 1-494)

recombinant CYP2A13 = molecular target: T4, recombinant CYP2A13 (Homo sapiens, UniProt Q16696); test: Time-dependent inhibition, recombinant CYP2A13 system, coumarin hydroxylase readout; format: biochemical
T4 sequence (Q16696 1-494): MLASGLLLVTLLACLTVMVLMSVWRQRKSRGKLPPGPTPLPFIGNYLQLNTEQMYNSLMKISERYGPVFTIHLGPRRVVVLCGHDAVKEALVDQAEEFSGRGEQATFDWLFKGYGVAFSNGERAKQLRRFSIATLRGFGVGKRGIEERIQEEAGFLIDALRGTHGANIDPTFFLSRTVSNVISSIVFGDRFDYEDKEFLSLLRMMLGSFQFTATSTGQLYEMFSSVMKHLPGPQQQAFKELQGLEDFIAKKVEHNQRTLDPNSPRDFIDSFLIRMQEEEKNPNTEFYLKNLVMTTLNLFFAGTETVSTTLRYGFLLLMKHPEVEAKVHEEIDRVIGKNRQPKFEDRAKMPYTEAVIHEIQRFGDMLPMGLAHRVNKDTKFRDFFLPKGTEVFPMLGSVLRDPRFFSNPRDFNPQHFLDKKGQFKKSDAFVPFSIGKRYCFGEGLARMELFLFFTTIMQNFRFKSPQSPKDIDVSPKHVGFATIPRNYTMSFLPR
From the text: The above-discussed approach regarding evaluation of selectivity, potency and inhibition parameters of human CYP2A6 by t-CA and structural analogs thereof may be similarly applied to evaluation of the same parameters with regard to CYP2A13.

[10] = recombinant CYP2A6, probe coumarin

O=CC=Cc1ccccc1C(F)(F)F [o-trifluoromethyl-CA, 2-trifluoromethylcinnamaldehyde]
kinact (CYP2A6 [1]; [10]): 0.00237 s⁻¹
kinact/KI (CYP2A6 [1]; [10]): 45 M⁻¹ s⁻¹
Ki (CYP2A6 [2]): 52.6 µM
Fold difference (with respect to CA) (CYP2A6 [3]): 1.9
time-dependent inhibition of CYP2A6, result in words (CYP2A6 [3]): more potent inhibitors than t-CA

O=C/C=C/c1ccccc1O [2-hydroxy-t-CA]
time-dependent inhibition of CYP2A6, result in words (CYP2A6 [3]): not to be time-dependent inhibitors

CCCCC/C(C=O)=C/c1ccccc1 [α-amyl-CA]
time-dependent inhibition of CYP2A6, result in words (CYP2A6 [3]): not to be time-dependent inhibitors
IC50 (CYP2A6 [4]): 65 µM

Cc1ccccc1C=CC=O [2-methyl-CA]
time-dependent inhibition of CYP2A6, result in words (CYP2A6 [3]): not to be time-dependent inhibitors

CN(C)c1ccc(/C=C/C=O)cc1 [4-dimethylamino-CA]
IC50 (CYP2A6 [4]): 100 µM

OC/C=C/c1ccccc1 [cinnamic alcohol, reference compound]
IC50 (CYP2A6 [5]): 354 ± 4.4 µM

CCCCCC/C(C=O)=C\c1ccccc1 [α-hexyl-CA]
time-dependent inhibition of CYP2A6, result in words (CYP2A6 [3]): not to be time-dependent inhibitors
IC50 (CYP2A6 [4]): 64.7 µM

CCC(C=O)=Cc1ccccc1 [α-ethyl-CA]
Kd (CYP2A6 [6]): 3 µM
time-dependent inhibition of CYP2A6, result in words (CYP2A6 [3]): not to be time-dependent inhibitors

O=C/C=C/c1ccc(F)cc1 [4-fluoro-CA]
IC50 (CYP2A6 [4]): 30.1 µM

N#CC=Cc1ccccc1 [cinnamonitrile]
IC50 (CYP2A6 [5]): 8.8 µM

O=CC=Cc1ccc([N+](=O)[O-])cc1 [4-nitro-CA, 4-nitrocinnamaldehyde]
kinact (CYP2A6 [1]; [10]): 0.00065 s⁻¹
kinact/KI (CYP2A6 [1]; [10]): 7 M⁻¹ s⁻¹
IC50 (CYP2A6 [5]): 308 µM
Ki (CYP2A6 [2]): 92.1 µM
Fold difference (with respect to CA) (CYP2A6 [3]): 0.29

C/C(C=O)=C\c1ccc(C(C)(C)C)cc1 [4-t-butyl-α-methyl-CA]
IC50 (CYP2A6 [4]): 348 µM

O=CC=Cc1cccc([N+](=O)[O-])c1 [3-nitro-CA, 3-nitrocinnamaldehyde]
kinact (CYP2A6 [1]; [10]): 0.00138 s⁻¹
kinact/KI (CYP2A6 [1]; [10]): 15.5 M⁻¹ s⁻¹
IC50 (CYP2A6 [5]): 410 µM
Ki (CYP2A6 [2]): 89.6 µM
Fold difference (with respect to CA) (CYP2A6 [3]): 0.65

O=C/C=C/c1c(F)cccc1F [2,6-difluoro-CA, 2,6-difluorocinnamaldehyde]
Log P [7]: 2.3
kinact (CYP2A6 [1]; [10]): 0.00407 s⁻¹
kinact/KI (CYP2A6 [1]; [10]): 86.2 M⁻¹ s⁻¹
IC50 (CYP2A6 [5]): 3.9 µM
Kd (CYP2A6 [8]): 7.8 µM
Ki (CYP2A6 [2]): 47.2 µM
Fold difference (with respect to CA) (CYP2A6 [3]): 3.6
time-dependent inhibition of CYP2A6, result in words (CYP2A6 [3]): more potent inhibitors than t-CA

CC(C)C(C=O)=Cc1ccccc1 [α-isopropyl-CA]
Kd (CYP2A6 [6]): 3.2 µM
time-dependent inhibition of CYP2A6, result in words (CYP2A6 [3]): not to be time-dependent inhibitors

O=C/C=C/c1ccc(Cl)cc1 [4-chloro-CA]
Kd (CYP2A6 [6]): 48.9 µM
IC50 (CYP2A6 [4]): 30.1 µM

CCN(CC)c1ccc(/C=C/C=O)cc1 [4-diethylamino-CA]
IC50 (CYP2A6 [4]): 451 µM

O=CC(Cl)=Cc1ccccc1 [α-chloro-CA, α-chlorocinnamaldehyde]
AUC fold increase [9]: 2.44-4.22
kinact (CYP2A6 [1]; [10]): 0.0025 s⁻¹
kinact/KI (CYP2A6 [1]; [10]): 733 M⁻¹ s⁻¹
IC50 (CYP2A6 [5]): 3.3 µM
Kd (CYP2A6 [8]): 9.6 µM
Ki (CYP2A6 [2]): 3.4 µM
kinact (CYP2A6 [3]): .15 min⁻¹
kinact/kI (CYP2A6 [3]): 0.04399
Fold difference (with respect to CA) (CYP2A6 [3]): 30.7
Fold difference (with respect to CA) (CYP2A6 [3]; listed as α-chloro-cinnamaldehyde): over 30
time-dependent inhibition of CYP2A6, result in words (CYP2A6 [3]): substantially more potent time-dependent inhibitor of CYP2A6 than t-CA; also recorded: more potent inhibitors than t-CA

O=C/C(Br)=C/c1ccccc1 [α-bromo-CA, α-bromocinnamaldehyde]
AUC fold increase [9]: 1.35-1.84
Log P [7]: 2.7
kinact (CYP2A6 [1]; [10]): 0.000283 s⁻¹
kinact/KI (CYP2A6 [1]; [10]): 7.83 M⁻¹ s⁻¹
IC50 (CYP2A6 [5]): 2.8 µM
Kd (CYP2A6 [8]): 8.2 µM
Ki (CYP2A6 [2]): 36.3 µM
kinact (CYP2A6 [3]): .017 min⁻¹
kinact/kI (CYP2A6 [3]): 0.000463
Fold difference (with respect to CA) (CYP2A6 [3]): 0.32
time-dependent inhibition of CYP2A6, result in words (CYP2A6 [3]): less potency as compared to t-CA

O=CC=C(c1ccccc1)c1ccccc1 [β-phenyl CA]
IC50 (CYP2A6 [4]): 148 µM

O=C/C=C/c1ccc(Br)cc1 [4-bromo-CA]
IC50 (CYP2A6 [4]): 58.1 µM

ON=CC=Cc1ccccc1 [Cinnamaldehyde oxime]
IC50 (CYP2A6 [5]): 8 µM

O=CCCc1ccccc1 [hydro-CA, hydrocinnamaldehyde]
AUC fold increase [9]: 1.71-2.67
kinact (CYP2A6 [1]; recombinant enzyme): 0.00193 s⁻¹
kinact/KI (CYP2A6 [1]; recombinant enzyme): 22.7 M⁻¹ s⁻¹
IC50 (CYP2A6 [5]): 48.3 µM
Kd (CYP2A6 [8]): 44.8 µM
Ki (CYP2A6 [2]): 85 µM
kinact (CYP2A6 [3]): .116 min⁻¹
kinact/kI (CYP2A6 [3]): 0.001365
Fold difference (with respect to CA) (CYP2A6 [3]): 0.96
time-dependent inhibition of CYP2A6, result in words (CYP2A6 [3]): not to be time-dependent inhibitors

O=C(O)/C=C/c1ccccc1 [cinnamic acid, reference compound]
IC50 (CYP2A6 [5]): > 2500 µM

CCCCC(C=O)=Cc1ccccc1 [α-butyl-CA]
Kd (CYP2A6 [6]): 36.8 µM
time-dependent inhibition of CYP2A6, result in words (CYP2A6 [3]): not to be time-dependent inhibitors

CCCC(C=O)=Cc1ccccc1 [α-propyl-CA]
Kd (CYP2A6 [6]): 7.8 µM
time-dependent inhibition of CYP2A6, result in words (CYP2A6 [3]): not to be time-dependent inhibitors

CC(C=O)=Cc1ccccc1[N+](=O)[O-] [o-nitro-α-methyl-CA, 2-nitro-α-methylcinnamaldehyde]
kinact (CYP2A6 [1]; [10]): 0.00405 s⁻¹
kinact/KI (CYP2A6 [1]; [10]): 207 M⁻¹ s⁻¹
Ki (CYP2A6 [2]): 19.6 µM
Fold difference (with respect to CA) (CYP2A6 [3]): 8.7
time-dependent inhibition of CYP2A6, result in words (CYP2A6 [3]): more potent inhibitors than t-CA

O=CC=Cc1ccccc1[N+](=O)[O-] [2-nitro-CA, 2-nitrocinnamaldehyde]
Ki (recombinant CYP2A13): 30.9 µM
kinact (recombinant CYP2A13): 0.00203 s⁻¹
kinact/KI (recombinant CYP2A13): 67.8 M⁻¹ s⁻¹
kinact (CYP2A6 [1]; [10]): 0.00372 s⁻¹
kinact/KI (CYP2A6 [1]; [10]): 267 M⁻¹ s⁻¹
IC50 (CYP2A6 [5]): 15.1 µM
Kd (CYP2A6 [8]): 47.5 µM
Ki (CYP2A6 [2]): 13.9 µM
Fold difference (with respect to CA) (CYP2A6 [3]): 11.2
time-dependent inhibition of CYP2A6, result in words (CYP2A6 [3]): more potent inhibitors than t-CA

O=CC(F)=Cc1ccccc1 [α-fluoro-CA]
time-dependent inhibition of CYP2A6, result in words (CYP2A6 [3]): not to be time-dependent inhibitors

CC(C=O)=Cc1ccccc1 [α-methyl-CA, α-methyl-cinnamaldehyde]
IC50 (CYP2A6 [5]): 5.3 µM
Kd (CYP2A6 [8]): 6.8 µM
time-dependent inhibition of CYP2A6, result in words (CYP2A6 [3]): not to be time-dependent inhibitors
time-dependent inhibition of CYP2A6, result in words (CYP2A6 [3]; listed as α-methyl-cinnamaldehyde): not be a time-dependent inhibitor of CYP2A6

COc1ccccc1C=CC=O [o-methoxycinnamaldehyde, 2-methoxycinnamaldehyde]
Kd (CYP2A6 [8]): 1.6 µM
